In patent US10709714B2 (CL BioSciences LLC, priority 2013, dated 2020):
“Also recorded” adds a separate entry of the source. Marks after values point to notes of the source that are not given here.

Experiments:
[1] = tested on: calvarial osteoblasts, hFOB, BMMSCs; assay: Proliferation (BrdU uptake) of bone-derived cells; format: cell-based, mouse, human; conditions: pre-incubation
ovariectomized CD rats [2] = assay: Bone histomorphometry, Model 2 rat OVX; format: in vivo; conditions: GA single s.c., 8 weeks
Excerpt: These effects were reversed by drug treatment. In one aspect, this reflects that targeting CCK2 receptors normalizes bone morphology irrespective of low estrogen levels.
Gastrin-antagonist treatment reversed these phenomena (FIG. 50).

ovariectomized Mastomys [3] = assay: Bone histomorphometry, Model 3 Mastomys OVX; format: in vivo; conditions: GA single s.c., 8 weeks
Excerpt: Patterns of bone mineralization (BM: decreased), resorption cavities (RC: increased) and osteoclasts (stained multinuclear cells (two arrows): increased) were affected by OVX. These effects were reversed by drug treatment.
The gastrin-antagonist treatment reversed these phenomena (FIG. 55).

ovariectomized Mastomys [4] = assay: Bone strength (Instron), Model 3 Mastomys OVX; format: in vivo
Description: Finally, bone strength was examined in Mastomys using an Instron device. Femurs were loaded to failure in four-point bending. Tests were conducted with a deflection rate of 0.05 mm/sec using a servohydraulic testing machine (Instron model 8874; Instron Corp., Norwood, Mass., USA). […] Measurements of bone strength using the Instron device confirmed the utility of the gastrin-antagonist in reversing the OVX-mediated bone phenotype.

ovariectomized CD rats [5] = assay: Circulating blood markers, Model 2 rat OVX; format: in vivo
Description: Ovariectomy increased PINP and osteocalcin. […] CON=control animals, OVX=ovariectomized animals, OVX+GA=gastrin antagonist treated ovariectomized animals. Mean±SEM. *p<0.05 vs. CON, **p<0.05 vs. OVX alone.
Circulating bone biomarkers were also altered by OVX. Specifically, both PINP (0.57±0.18 ng/ml vs. 0.35±0.06, p<0.05) and osteocalcin was elevated (1.35±0.9 ng/ml vs. 0.43±0.07, p<0.05). Treatment with the antagonist attenuated each of these ovariectomy-mediated alterations.

[6] = tested on: human PTH cells co-cultured with MTC-SK cell line; assay: PTH cell / MTC-SK co-culture: PTH and calcitonin transcription and secretion; format: cell-based; conditions: preincubation 10 mins, YF476 10 nM
Description: Human PTH cells isolated from surgical specimens were co-cultured with the MTC-SK cell line. […] These effects could be reversed by preincubation (10 mins) with the selective CCK2 receptor antagonist, YF476 (10 nM). […] PET=polyester membrane ([…]).
These effects were reversed by preincubation with the selective CCK2 antagonist, YF476.

ovariectomized Mastomys [7] = assay: MicroCT of trabecular and cortical bone, Model 3 Mastomys OVX; format: in vivo
CCK2 receptor = target: T1, CCK2 receptor (Homo sapiens, UniProt P32239); assay: Gastrin-stimulated cAMP production and calcitonin release/transcription in MTC-SK cells; format: cell-based; conditions: MTC-SK cells
T1 construct: Gastrin stimulated both cAMP as well as calcitonin release from the well-differentiated human MTC cell line, MTC-SK; endogenous in cells; host or cells: MTC-SK (human medullary thyroid carcinoma cell line)
T1 sequence (P32239 1-447): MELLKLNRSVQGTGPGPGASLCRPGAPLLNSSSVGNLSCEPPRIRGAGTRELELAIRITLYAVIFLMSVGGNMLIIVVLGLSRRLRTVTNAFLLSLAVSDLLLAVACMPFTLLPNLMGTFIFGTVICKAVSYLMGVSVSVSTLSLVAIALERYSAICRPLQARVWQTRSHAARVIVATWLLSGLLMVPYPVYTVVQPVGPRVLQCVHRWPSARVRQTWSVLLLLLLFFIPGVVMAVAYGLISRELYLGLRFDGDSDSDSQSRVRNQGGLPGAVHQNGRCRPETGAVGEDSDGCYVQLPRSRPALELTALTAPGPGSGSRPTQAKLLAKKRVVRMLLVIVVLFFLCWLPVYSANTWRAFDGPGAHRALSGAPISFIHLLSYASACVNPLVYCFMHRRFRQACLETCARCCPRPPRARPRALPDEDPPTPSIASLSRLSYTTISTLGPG

[8] = tested on: calvarial osteoblasts, hFOB, BMMSCs; assay: Gene expression in bone-derived cells (ALKP, M-CSF, RANKL); format: cell-based, mouse, human; conditions: YF476 1 nM, preincubation
Description: This was reversed by the selective CCK2 receptor antagonist, YF476 (1 nM).

ovariectomized CD-1 mice = assay: Bone strength (Instron), Model 1 mouse OVX; format: in vivo
[9] = OVX Mastomys + loxitidine, GA 10 ug/animal single s.c., 8 weeks
[10] = OVX Mastomys, GA-treated vs control
[11] = OVX CD rats + omeprazole, GA 50 ug/animal single s.c., 8 weeks
[12] = OVX CD rats, GA-treated vs control
[13] = OVX Mastomys + loxitidine, GA 10 ug/animal single s.c., 8 weeks, cortical bone
[14] = OVX Mastomys + loxitidine, GA 10 ug/animal single s.c., 8 weeks, trabecular bone
[15] = OVX Mastomys + loxitidine, GA 10 ug/animal single s.c., 8 weeks, trabecular bone, listed as GA
[16] = OVX Mastomys + loxitidine, GA 10 ug/animal single s.c., 8 weeks, trabecular bone, listed as Gastrin antagonist
[17] = OVX Mastomys, GA-treated vs control, cortical bone
[18] = OVX Mastomys, GA-treated vs control, trabecular bone
[19] = OVX CD-1 mice + omeprazole, GA 15 ug/animal single s.c., 8 weeks
[20] = OVX CD-1 mice, GA-treated vs control

CNc1cccc(NC(=O)N[C@@H]2N=C(c3ccccn3)c3ccccc3N(CC(=O)C(C)(C)C)C2=O)c1 [YF476, netazepide]
effect on gastrin-stimulated proliferation [1]: not inhibited; also recorded: not reversed
effect on OVX changes in bone mineralization, resorption cavities and TRAP-positive osteoclasts (ovariectomized CD rats [2]): reversed
effect on OVX changes in bone mineralization, resorption cavities and TRAP-positive osteoclasts (ovariectomized Mastomys [3]): reversed
Fracture Load (ovariectomized Mastomys [4]; [9]): 42.1
Max Load (ovariectomized Mastomys [4]; [9]): 42.2
Stiffness (ovariectomized Mastomys [4]; [9]): 311
Total Work (ovariectomized Mastomys [4]; [9]): 14.8
Yield (Stiffness) (ovariectomized Mastomys [4]; [9]): 280
% Change Fracture Load (ovariectomized Mastomys [4]; [10]): −25%
% Change Max Load (ovariectomized Mastomys [4]; [10]): −25%
% Change Stiffness (ovariectomized Mastomys [4]; [10]): −6%**
% Change Total Work (ovariectomized Mastomys [4]; [10]): 55%*^,**
% Change Yield (Stiffness) (ovariectomized Mastomys [4]; [10]): −6%**
CTX1 (ovariectomized CD rats [5]; [11]): 0.42
ESR (circulating estrogen) (ovariectomized CD rats [5]; [11]): 2.1 pg/mL
Gastrin (circulating) (ovariectomized CD rats [5]; [11]): 2971 pg/mL
Osteocalcin (ovariectomized CD rats [5]; [11]): 0.80 ng/mL
PINP (ovariectomized CD rats [5]; [11]): 0.48 ng/mL
PTH (circulating) (ovariectomized CD rats [5]; [11]): 1562
% Change CTX1 (ovariectomized CD rats [5]; [12]): −49%
% Change ESR (ovariectomized CD rats [5]; [12]): −60%*
% Change Gastrin (ovariectomized CD rats [5]; [12]): +183%*
% Change Osteocalcin (ovariectomized CD rats [5]; [12]): +81%**
% Change PINP (ovariectomized CD rats [5]; [12]): +41%
% Change PTH (ovariectomized CD rats [5]; [12]): −15%
effect on gastrin effects in co-culture [6]: reversed
BS (ovariectomized Mastomys [7]; [13]): 14.21
BV/TV (ovariectomized Mastomys [7]; [13]): 0.953
Ct. Th (ovariectomized Mastomys [7]; [13]): 0.288
Dens (Apparent Density, cortical) (ovariectomized Mastomys [7]; [13]): 1159
pMOI (ovariectomized Mastomys [7]; [13]): 1.10
BS (ovariectomized Mastomys [7]; [14]): 19.2
BV/TV (ovariectomized Mastomys [7]; [14]): 0.175
Conns-Dens (ovariectomized Mastomys [7]; [14]): 124.1
SMI (ovariectomized Mastomys [7]; [14]): 0.74
Tb. Sp (ovariectomized Mastomys [7]; [14]): 0.457
Dens (Apparent Density, trabecular) (ovariectomized Mastomys [7]; [15]): 187.1
Tb. N (ovariectomized Mastomys [7]; [15]): 2.38
Tb. Th (ovariectomized Mastomys [7]; [15]): 0.086
Dens (Apparent Density, trabecular) (ovariectomized Mastomys [7]; [16]): 187±66
Tb. N (ovariectomized Mastomys [7]; [16]): 2.4±0.6
Tb. Th (ovariectomized Mastomys [7]; [16]): 0.08±0.01
% Change BS (ovariectomized Mastomys [7]; [17]): −1%
% Change BV/TV (ovariectomized Mastomys [7]; [17]): 0%
% Change Ct. Th (ovariectomized Mastomys [7]; [17]): −1%
% Change Dens (Apparent Density, cortical) (ovariectomized Mastomys [7]; [17]): −4%
% Change pMOI (ovariectomized Mastomys [7]; [17]): −4%
% Change BS (ovariectomized Mastomys [7]; [18]): +4%**
% Change BV/TV (ovariectomized Mastomys [7]; [18]): +27%**
% Change Conns-Dens (ovariectomized Mastomys [7]; [18]): +28%
% Change Dens (Apparent Density, trabecular) (ovariectomized Mastomys [7]; [18]): +19%**
% Change SMI (ovariectomized Mastomys [7]; [18]): 0%
% Change Tb. N (ovariectomized Mastomys [7]; [18]): +18%**
% Change Tb. Sp (ovariectomized Mastomys [7]; [18]): −20%**
% Change Tb. Th (ovariectomized Mastomys [7]; [18]): +25%*^; **
effect on gastrin-mediated calcitonin secretion (CCK2 receptor): reversed
effect on gastrin-stimulated cAMP production (CCK2 receptor): reversed
effect alone on cAMP production (CCK2 receptor; without gastrin): no significant effect
effect on gastrin-inhibited gene expression [8]: reversed and normalized
Max Load (ovariectomized CD-1 mice; [19]): 44.1
Stiffness (ovariectomized CD-1 mice; [19]): 285
Total Work (ovariectomized CD-1 mice; [19]): 19.4
Yield (Stiffness) (ovariectomized CD-1 mice; [19]): 256
Fracture Load (ovariectomized CD-1 mice; OVX CD-1 mice + omeprazole, GA 15 ug/animal single s.c., 8 weeks, listed as GA): 42.8
Fracture Load (ovariectomized CD-1 mice; OVX CD-1 mice + omeprazole, GA 15 ug/animal single s.c., 8 weeks, listed as gastrin antagonist): 43±6
% Change Fracture Load (ovariectomized CD-1 mice; [20]): −24%*
% Change Max Load (ovariectomized CD-1 mice; [20]): −28%*
% Change Stiffness (ovariectomized CD-1 mice; [20]): −3%**
% Change Total Work (ovariectomized CD-1 mice; [20]): −4%**
% Change Yield (Stiffness) (ovariectomized CD-1 mice; [20]): −5%**
